Results: patent US20100040566A1, “EMULSION” (Riemann Trading ApS, priority 2006, published 2010)

Experiment: Determination of photo stability (Xenon arc lamp irradiation, HPLC of UV-filters)
Assay type: physicochemical
Conditions: for photo stability (in words): 3 MED/2 h irradiation; for Content of UV-Filter Substances, After irradiation [3MED/2 h], Found [%]: Xenon arc lamp, 3 MED after two hours, HPLC; for Content of UV-Filter Substances, Before irradiation, Found [%]: in sample prepared as in Example 1, HPLC; for Content of UV-Filter Substances, After irradiation [3MED/2 h], [%] rel.: relative to content before irradiation
Text: The test sample are weighed and distributed evenly and homogeneously with a brush onto the marked area of a glass plate.
For the Irradiation we use a Xenon arc lamp because the continuous spectrum in the UV-region is near—identical to that of—natural light. The lamp is turned on approximately one hour before Irradiation.
The glass plate Is positioned under the lamp so that the square with the test sample is maximally illuminated.
The distance (lamp-glass plate) is acquired with the aid of a calibrated hand radiometer (PMA 2100) with UV-B detector. The radiant Intensity of the lamp on the sample is set up so that an Irradiation dose of 3 MED (Minimal Erythemal Dose) is given after two hours.
In order to ascertain to which extent each of the Individual UV-filters in the tested formulations has been photometrically degraded, they are analytically quantified before and after irradiation.
The instrumental-analytical method used is HPLC
Sample is prepared as described in Example 1

photo stability (in words) | Content of UV-Filter Substances, After irradiation [3MED/2 h], Found [%] | Content of UV-Filter Substances, Before irradiation, Found [%] | Content of UV-Filter Substances, After irradiation [3MED/2 h], [%] rel. [%] | Compound
very good value of photo stability | 9.35 | 9.98 | 93.7 | CCCCC(CC)COC(=O)C(C#N)=C(c1ccccc1)c1ccccc1 (stereo not drawn) [Octocrylene]
very good value of photo stability | 1.21 | 1.29 | 93.8 | CCCCCCOC(=O)c1ccccc1C(=O)c1ccc(N(CC)CC)cc1O [Diethylamino Hydroxybenzoyl Hexyl Benzoate]
relatively strong degradation | – | – | – | CCCCC(CC)COC(=O)C=Cc1ccc(OC)cc1 (stereo not drawn) [Ethylhexyl Methoxycinnamate]
